Consider 1 compound from patent US7282344B2, “Cation conducting GABAA receptors and their use” (Neurosearch A/S, priority 2001, dated 2007).

The assay concerns the target T1, GABAA receptor α2 β3 γ2 (wt) (Homo sapiens, UniProt P18507+P28472+P47869).
T1 construct: expressed in transfected cells; host or cells: CHO-K1 (ATCC No. CCL61)
Put plainly: [^3H]-Muscimol binding, wild-type receptor. Conditions: wt α2 β3 γ2, membranes from CHO-K1 cells. As for the experimental part:
Binding studies were performed using standard methods. Membranes were prepared from CHO-K1 cells expressing recombinant GABAAR subunits. The cells were washed in PBS (Life Technologies), trypsinized, washed twice in tris-citrate buffer (50 mM, pH 7.1) and centrifuged for 10 minutes at 5,000 g.
Membranes were resuspended in membrane wash buffer [20 mM KH2PO4K2HPO4, pH 7.5, 50 mM KCl, 0.025% (w/v) NaN3, and various protease inhibitors (1 mM EDTA, 2 mM benzamidine chloride, 0.1 mM benzethonium chloride, 50 U/ml bacitracin, 0.3 mM phenylmethylsulfonyl fluoride, 10 mg/I ovomucoid trypsin inhibitor, 10 mg/l soybean trypsin inhibitor)] and centrifuged for 30 minutes at 177,000 g and 4° C. The pellet was resuspended in binding assay buffer (20 mM KH2PO4/K2HPO4, pH 7.5 and 100 mM KCl) to a protein concentration of 1 mg/ml and homogenized just before use. Binding was performed with 1, 3, 10, 30, 100 or 300 nM of [^3H]-muscimol (20 Ci/mmol, Dupont-New England Nuclear) in triplicate in a final volume of 250 μl containing 200 μg of protein, and non-specific binding was determined in the presence of 1 mM GABA (Sigma). Samples were incubated at 4° C. for 30 minutes and labelled membranes were harvested on a Brandel cell harvester using GF/B filters (Whatman). The filters were washed with 3×4 ml binding assay buffer and the amount of radioactivity was determined by liquid scintillation counting. […]

SMILES strings stand for the structures.

T1 sequence (P47869 29-451): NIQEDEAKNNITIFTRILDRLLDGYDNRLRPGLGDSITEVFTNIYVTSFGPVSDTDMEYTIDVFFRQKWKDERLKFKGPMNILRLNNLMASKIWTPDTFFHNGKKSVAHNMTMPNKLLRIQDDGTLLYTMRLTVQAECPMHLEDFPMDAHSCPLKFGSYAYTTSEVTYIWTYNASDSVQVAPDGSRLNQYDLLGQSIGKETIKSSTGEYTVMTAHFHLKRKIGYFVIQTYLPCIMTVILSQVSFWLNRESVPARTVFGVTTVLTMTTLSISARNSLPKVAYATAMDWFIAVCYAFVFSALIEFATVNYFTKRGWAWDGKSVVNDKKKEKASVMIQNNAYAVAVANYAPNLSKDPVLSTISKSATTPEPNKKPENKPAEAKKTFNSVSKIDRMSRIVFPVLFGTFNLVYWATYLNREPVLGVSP
T1 sequence (P28472 26-473): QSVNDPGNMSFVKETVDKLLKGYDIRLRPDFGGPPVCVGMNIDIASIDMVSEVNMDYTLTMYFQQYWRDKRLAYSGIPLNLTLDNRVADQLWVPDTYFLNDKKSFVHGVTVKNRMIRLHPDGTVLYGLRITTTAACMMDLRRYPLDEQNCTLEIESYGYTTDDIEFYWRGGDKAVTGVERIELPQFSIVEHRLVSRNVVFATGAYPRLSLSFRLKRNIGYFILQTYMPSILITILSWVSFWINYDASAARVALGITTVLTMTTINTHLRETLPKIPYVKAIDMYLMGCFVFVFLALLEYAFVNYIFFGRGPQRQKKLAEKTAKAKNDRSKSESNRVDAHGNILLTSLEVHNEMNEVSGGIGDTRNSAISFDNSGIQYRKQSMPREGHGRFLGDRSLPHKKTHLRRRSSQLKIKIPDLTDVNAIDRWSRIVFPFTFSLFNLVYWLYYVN
T1 sequence (P18507 40-475): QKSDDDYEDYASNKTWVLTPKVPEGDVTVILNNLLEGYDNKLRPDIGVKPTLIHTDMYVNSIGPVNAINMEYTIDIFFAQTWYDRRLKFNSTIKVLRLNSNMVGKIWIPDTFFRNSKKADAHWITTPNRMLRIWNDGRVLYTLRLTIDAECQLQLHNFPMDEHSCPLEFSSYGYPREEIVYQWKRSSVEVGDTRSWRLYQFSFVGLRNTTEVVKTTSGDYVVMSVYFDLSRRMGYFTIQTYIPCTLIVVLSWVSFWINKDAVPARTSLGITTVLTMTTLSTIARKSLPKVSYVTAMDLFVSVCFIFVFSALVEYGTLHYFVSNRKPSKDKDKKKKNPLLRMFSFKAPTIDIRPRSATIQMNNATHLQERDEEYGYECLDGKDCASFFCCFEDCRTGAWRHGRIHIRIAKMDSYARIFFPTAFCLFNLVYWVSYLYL

As for `NCc1cc(=O)[nH]o1` [[^3H] Muscimol, Muscimol], the Kd is 54.7 ± 14.7 nM.

Usually Kd stands for the free concentration of one partner at which half of the binding sites on the other are occupied at equilibrium, for simple one-to-one binding. Higher therefore signals a looser complex.
